Values of other authors as cited in patent US6525025B2, “Gamma-ketoacid dipeptides as inhibitors of caspase-3” (Merck Frosst Canada & Co., priority 2000, dated 2003).

Legend:
[1] = target: T1, caspase-1 (Homo sapiens, UniProt P29466)
T1 sequence (P29466 120-297 limits assumed): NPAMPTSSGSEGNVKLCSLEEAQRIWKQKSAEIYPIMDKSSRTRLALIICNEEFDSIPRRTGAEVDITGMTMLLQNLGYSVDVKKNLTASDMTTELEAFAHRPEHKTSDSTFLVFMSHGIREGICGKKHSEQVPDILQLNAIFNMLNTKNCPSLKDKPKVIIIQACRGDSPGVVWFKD
T1 sequence (P29466 317-404 limits assumed): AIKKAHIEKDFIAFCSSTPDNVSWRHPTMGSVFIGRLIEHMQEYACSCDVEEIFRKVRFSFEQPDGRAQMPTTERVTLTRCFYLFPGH

[2] = target: T2, caspase-3 (Homo sapiens, UniProt P42574)
T2 sequence (P42574 29-175 limits assumed): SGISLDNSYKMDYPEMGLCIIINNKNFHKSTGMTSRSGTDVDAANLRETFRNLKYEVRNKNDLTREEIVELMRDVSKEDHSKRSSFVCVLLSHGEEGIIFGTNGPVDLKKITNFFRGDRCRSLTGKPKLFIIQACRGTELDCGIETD
T2 sequence (P42574 176-277 limits assumed): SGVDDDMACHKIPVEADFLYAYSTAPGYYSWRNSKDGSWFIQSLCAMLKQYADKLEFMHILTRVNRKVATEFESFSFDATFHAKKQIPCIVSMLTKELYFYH

Ac-YVAD-CHO
Ki [1]: < 0.001 µM
Ki [2]: 12 µM
